Each molecule was assayed on SCG neurons (assay: Protection of SCG neurons from anti-NGF killing). Conditions: Rattus norvegicus, Neuron, 48 h, read-out: IC50, rescue from anti-NGF killing of cultured SCG neurons.
Assay type: cell-based, Sprague Dawley rats
Protocol: Neurotrophins are critical to the growth, development, and survival of small fiber neurons of the PNS. SCG neurons are neurons of the PNS that undergo apoptosis upon NGF withdrawal. In a typical experiment SCG neurons are cultured in the presence of NGF, which induces survival and neurite out-growth. After 5 days the NGF is removed by either the addition of anti-NGF polyclonal antibody (Sigma) or by repeated washings (4 times) with NGF free media, resulting in the apoptosis of up to 90% of the neurons after 48 hours, as measured by MTS staining. The addition of selected compounds of Formula I to the final cellular media provides upwards of 100% protection, at drug concentrations ranging from 10 to 50 μM (see Example 62).
Protection of SCG neurons from anti-NGF killing. SCG neurons were isolated from day 1 neonatal Sprague Dawley rats, plated at a cell density of 5,000 cells/well, and incubated in Biowhittaker Ultraculture containing 1% Penstrep, 1% L-glutamine, 0.7% ARAC, 3% rat serum, and NGF (50 ng/mL, Calomone Labs), at 37° C., under a 5% CO2 atmosphere. After 4 days the cells were treated with anti-NGF antibody (Sigma). At this time compound was added and the cells were maintained serum and NGF free for 48 hours, at which time viability of the neurons was assessed using Alamar Blue (Medicorp) staining. Table 3 summarizes selected IC50 values from compounds tested using this protocol.
Work on `COc1ccc(NC(=O)Oc2cc(Sc3ccc4ccccc4c3)c3oc(=O)sc3c2)cc1` [Compound 26, 5-(N-(4-methoxyphenyl)carbamoyloxy)-7-((2-naphthyl)sulfanyl)benzo[1,3]oxathiol-2-one] yielded an IC50 of 16 µM.
`Cc1cc(OC(=O)NC2CCCCC2)cc2sc(=O)oc12` [Compound 31, 5-(N-Cyclohexylcarbamoyloxy)-7-methylbenzo[1,3]oxathiol-2-one] was tested, and the IC50 was 35 µM.
Molecule `O=c1oc2c(-c3ccc(Cl)cc3Cl)cc(O)cc2s1` [Compound 41, 7-(2,4-dichlorophenyl)-5-hydroxybenzo[1,3]oxathiol-2-one] has an IC50 of 7 µM.
In the case of `O=c1oc2c(-c3ccc(Br)cc3)cc(O)cc2s1` [Compound 44, 7-(4-bromophenyl)-5-hydroxybenzo[1,3]oxathiol-2-one], the IC50 is reported as 20 µM.

Same assay, conditions: Rattus norvegicus, Neuron; anti-NGF antibody, 48 hours, Alamar Blue viability; read-out: IC50, rescue from anti-NGF killing of cultured SCG neurons
In the case of `CCSc1cc(O)cc2sc(=O)oc12` [Compound 5, 7-Ethylsulfanyl-5-hydroxybenzo[1,3]oxathiol-2-one], the IC50 is reported as over 30 µM.
`CCc1ccccc1Sc1cc(O)cc2sc(=O)oc12` [Compound 12, 7-((2-Ethylphenyl)sulfanyl)-5-hydroxybenzo[1,3]oxathiol-2-one] was tested, and the IC50 was over 30 µM.
For `Cc1cccc(C)c1Sc1cc(O)cc2sc(=O)oc12` [Compound 13, 7-((2,6-Dimethylphenyl)sulfanyl)-5-hydroxybenzo[1,3]oxathiol-2-one], the IC50 was over 30 µM.
`CC(C)c1ccccc1Sc1cc(O)cc2sc(=O)oc12` [Compound 14, 5-hydroxy-7-((2-iso-Propylphenyl)sulfanyl)benzo[1,3]oxathiol-2-one] was tested, and the IC50 was 30 µM.
`CC(C)(C)c1ccc(Sc2cc(O)cc3sc(=O)oc23)cc1` [Compound 17, 7-((4-tert-Butylphenyl)sulfanyl)-5-hydroxybenzo[1,3]oxathiol-2-one] was tested, and the IC50 was 25 µM.
Molecule `O=c1oc2c(Sc3ccccc3C(F)(F)F)cc(O)cc2s1` [Compound 18, 5-hydroxy-7-((2-Trifluoromethylphenyl)sulfanyl)benzo[1,3]oxathiol-2-one] has an IC50 of over 30 µM.
`O=c1oc2ccc(O)c(Sc3nc4ccccc4s3)c2s1` [Compound 21, 4-((Benzothiazol-2-yl)sulfanyl)-5-hydroxybenzo[1,3]oxathiol-2-one] showed an IC50 of 50 µM.
`O=c1oc2c(Sc3cccc4ccccc34)cc(O)cc2s1` [Compound 22, 5-Hydroxy-7-((1-naphthyl)sulfanyl)benzo[1,3]oxathiol-2-one] was tested, and the IC50 was over 30 µM.
Work on `O=c1oc2c([S+]([O-])c3ccc4ccccc4c3)cc(O)cc2s1` (stereo not shown) [Compound 24, 5-Hydroxy-7-((2-naphthyl)sulfinyl)benzo[1,3]oxathiol-2-one] yielded an IC50 of over 30 µM.
`O=c1oc2c(Sc3ccccc3)cc(O)c(Sc3ccc4ccccc4c3)c2s1` [Compound 29, 5-hydroxy-4-(2-naphthylthio)-7-((phenyl)sulfanyl)benzo[1,3]oxathiol-2-one] gave an IC50 of over 30 µM.
With `O=C(Oc1cc(-c2ccccc2)c2oc(=O)sc2c1)c1sc2ccccc2c1Cl` [Compound 33, 5-(3-chlorobenzothiophen-2-ylcarbonyloxy)-7-phenylbenzo[1,3]oxathiol-2-one] the IC50 was over 30 µM.
Work on `O=c1oc2c(-c3ccccc3Cl)cc(O)cc2s1` [Compound 36, 7-(2-chlorophenyl)-5-hydroxybenzo[1,3]oxathiol-2-one] yielded an IC50 of 16 µM.
With `O=c1oc2c(-c3cccc(Cl)c3)cc(O)cc2s1` [Compound 37, 7-(3-chlorophenyl)-5-hydroxybenzo[1,3]oxathiol-2-one] the IC50 was over 30 µM.
In the case of `O=c1oc2c(-c3ccc(Cl)cc3)cc(O)cc2s1` [Compound 39, 7-(4-chlorophenyl)-5-hydroxybenzo[1,3]oxathiol-2-one], the IC50 is reported as 30 µM.
`O=c1oc2c(-c3cc(Cl)ccc3Cl)cc(O)cc2s1` [Compound 42, 7-(2,5-dichlorophenyl)-5-hydroxybenzo[1,3]oxathiol-2-one] gave an IC50 of 17 µM.
Molecule `O=c1oc2c(-c3ccc(Cl)c(Cl)c3)cc(O)cc2s1` [Compound 43, 7-(3,4-dichlorophenyl)-5-hydroxybenzo[1,3]oxathiol-2-one] has an IC50 of 7 µM.
`O=c1oc2c(-c3cccc(I)c3)cc(O)cc2s1` [Compound 45, 5-hydroxy-7-(3-iodophenyl)benzo[1,3]oxathiol-2-one] was tested, and the IC50 was 7 µM.
Work on `Cc1cccc(-c2cc(OC(=O)c3ccccc3Cl)cc3sc(=O)oc23)c1` [Compound 48, 5-(2-chlorophenylcarbonyloxy)-7-(3-methylphenyl)benzo[1,3]oxathiol-2-one] yielded an IC50 of 28 µM.
`Cc1cccc(C)c1-c1cc2oc(=O)sc2cc1O` [Compound 50, 6-(2,6-dimethylphenyl)-5-hydroxybenzo[1,3]oxathiol-2-one] showed an IC50 of 22 µM.
`COc1ccc(-c2cc(O)cc3sc(=O)oc23)cc1` [Compound 53, 5-hydroxy-7-(4-methoxyphenyl)benzo[1,3]oxathiol-2-one] gave an IC50 of over 30 µM.
`O=c1oc2c(-c3ccc(-c4ccccc4)cc3)cc(O)cc2s1` [Compound 54, 7-biphenyl-5-hydroxybenzo[1,3]oxathiol-2-one] showed an IC50 of 23 µM.
For `CCNc1cc(C)cc2sc(=O)oc12` [Compound 56, 7-ethylamino-5-methylbenzo[1,3]oxathiol-2-one], the IC50 was 40 µM.
With `O=c1oc2c3c4c(cc2s1)CCCN4CCC3` [Compound 57] the IC50 was 50 µM.
`O=c1oc2ccc(Nc3c(Cl)cc(Br)cc3Cl)cc2s1` [Compound 58, 5-(4-bromo-2,6-dichloroanalino)benzo[1,3]oxathiol-2-one] gave an IC50 of 50 µM.

Same assay, conditions: anti-NGF antibody, 48 hours, Alamar Blue viability; read-out: IC50, rescue from anti-NGF killing of cultured SCG neurons
For `O=c1oc2c([S+]([O-])Cc3ccccc3)cc(O)cc2s1` (stereo not shown) [Compound 6], the IC50 was over 30 µM.

Same assay, conditions: at 10 μM compound
For `CC(C)c1ccccc1Sc1cc2oc(=O)sc2cc1O` [Compound 15, 5-hydroxy-6-((2-iso-Propylphenyl)sulfanyl)benzo[1,3]oxathiol-2-one], the “rescue from anti-NGF killing, % at 10 μM” value was 40% at 10 μM.

Same assay, conditions: at 30 μM compound
For `CC(C)c1ccc(Sc2cc(O)cc3sc(=O)oc23)cc1` [Compound 16, 7-(4-iso-Propylphenylthio)-5-hydroxybenzo[1,3]oxathiol-2-one], the “rescue from anti-NGF killing, % at 30 μM” value was 42% at 30 μM.
For `O=c1oc2c(-c3ccc(F)cc3)cc(O)cc2s1` [Compound 35, 7-(4-fluorophenyl)-5-hydroxybenzo[1,3]oxathiol-2-one], the “rescue from anti-NGF killing, % at 30 μM” value was 40% at 30 μM.
`O=c1oc2c(-c3ccccc3C(F)(F)F)cc(O)cc2s1` [Compound 51, 5-hydroxy-7-(2-trifluoromethylphenyl)benzo[1,3]oxathiol-2-one] was tested, and the “rescue from anti-NGF killing, % at 30 μM” value was 38% at 30 μM.

Same assay, conditions: at 50 μM compound
`O=C(Oc1cc(-c2cccc(Cl)c2)c2oc(=O)sc2c1)c1ccccc1Cl` [Compound 38, 5-(2-chlorophenylcarbonyloxy)-7-(3-chlorophenyl)benzo[1,3]oxathiol-2-one] was tested, and the “rescue from anti-NGF killing, % at 50 μM” value was 40% at 50 μM.
With `Cc1cccc(C)c1-c1cc(O)cc2sc(=O)oc12` [Compound 49, 7-(2,6-dimethylphenyl)-5-hydroxybenzo[1,3]oxathiol-2-one] the “rescue from anti-NGF killing, % at 50 μM” value was 40% at 50 μM.
With `CCc1cccc(CC)c1Nc1ccc2oc(=O)sc2c1` [Compound 59, 6-(2,6-diethylanalino)benzo[1,3]oxathiol-2-one] the “rescue from anti-NGF killing, % at 50 μM” value was 38% at 50 μM.

These molecules were tested on SCG neurons (assay: In vitro protection of SCG neurons from Taxol killing). Conditions: Rattus norvegicus, Neuron; Taxol 50 ng/mL, 48 hours, MTS viability; read-out: IC50, rescue from Taxol killing of SCG neurons.
Assay type: cell-based, Sprague Dawley rats
From the text: Taxol™ is regularly used in the treatment of breast and other cancers. Taxol™ binds to the cyto-skeletal protein tubulin, thereby inhibiting normal microtubular […] and inducing cellular apoptosis. Despite its potency as an anti-tumour agent, Taxol™ is also toxic to neurons, inducing dose limiting peripheral neuropathies. The addition of Taxol™ to cultured SCG neurons induces the degradation or loss of upwards of 80% of the neurons. The addition of selected compounds of Formula I to the cellular media, concurrently with Taxol™, protects upwards of 100% of the neurons, at drug concentrations ranging from 3 to 50 μM (see Example 63).
In Vitro Protection of SCG neurons from Taxol killing. SCG neurons were isolated from day 1 neonatal Sprague Dawley rats, plated at a cell density of 10,000 cells/well, and incubated in Biowhittaker Ultraculture containing 1% Penstrep, 1% L-glutamine, 0.7% ARAC, 3% rat serum, and NGF (50 ng/mL, Calomone Labs) at 37° C., under a 5% CO2 atmosphere. After 5 days the cells were treated with compound and Taxol™ (50 ng/mL). Viability of neurons was assessed 48 hours later using MTS (Promega) staining. Table 4 summarizes selected IC50 values from compounds tested using this protocol. Also, see FIG. 1 for compound protection against Taxol killing.
`O=c1oc2ccc(O)cc2s1` [Compound 1, 5-Hydroxybenzo[1,3]oxathiol-2-one] was tested, and the IC50 was 25 µM.
In the case of `O=c1oc2c(Cl)cc(O)c(Cl)c2s1` [Compound 3, 4,7-Dichloro-5-hydroxybenzo[1,3]oxathiol-2-one], the IC50 is reported as 10 µM.
Molecule `O=c1oc2c(Sc3cccc4ccccc34)cc(O)cc2s1` [Compound 22, 5-Hydroxy-7-((1-naphthyl)sulfanyl)benzo[1,3]oxathiol-2-one] has an IC50 of 10 µM.
`COc1ccc(NC(=O)Oc2cc(Sc3ccc4ccccc4c3)c3oc(=O)sc3c2)cc1` [Compound 26, 5-(N-(4-methoxyphenyl)carbamoyloxy)-7-((2-naphthyl)sulfanyl)benzo[1,3]oxathiol-2-one] gave an IC50 of 7 µM.
